One may read the inhibition as how much of the control response was suppressed. A higher inhibition goes with a response far below the control. The term IC50 denotes the concentration at which inhibition is half-maximal. A word on the CC50: it is the concentration giving 50% cytotoxicity. By melting point is commonly meant the temperature, or range, at which the solid turns liquid. Usually EC50 stands for the concentration at which the effect is half-maximal.

The subject of one series is male ICR mice. Briefly: Tail suspension test (antidepressant activity). In kind it is in vivo. The note with it: mean ± SD, n = 6, vehicle 264.8 ± 11.6 s. Here is the method: Antidepressant activity was determined on 36 male ICR mice weighing 22–25 g as described in [14] using the Panlab LE808 apparatus.
The tail suspension test was used to assess the antidepressant activity of the most-active NHE-1 inhibitors.

In the next series the test system is rat intraocular pressure. Briefly: Intraocular pressure study (TonoVet). The format is in vivo. The note with it: rats, 0.4% eye drops; for Max IOP Reduction: m ± SD, n = 5; for IOP-lowering activity reduction relative to 4a: vs 4a. Here is the method: Intraocular pressure was measured on 75 adult outbred rats of both sexes with a TonoVet device (Finland) as reported by us previously.
To access the influence on rat eye aqueous humor formation, the studied compounds were administered as 0.4% eye drops. […] Introduction of 5-bromine (4b) or acyclic guanidine N^1 , N^3 -side chains (3a) led to 2- and 3-fold activity reduction, respectively.

A further series relates to rabbit platelets. Briefly: ADP-induced platelet aggregation assay. In kind it is cell-based. To be noted: Oryctolagus cuniculus, m ± SD, n = 5. The procedure:
Platelet aggregation was assessed on a two-channel laser analyzer “BIOLA-220 LA” (Russia) as described previously using rabbit platelets.

Series [1] relates to LPS-stimulated C57bl/6j peritoneal macrophages. Briefly: LPS-induced nitric oxide synthesis in primary peritoneal macrophages (Griess). The format is cell-based, mice. The note with it: Mus musculus, Peritoneal macrophage, LPS 100 ng/mL, 22 h incubation, n = 3; for IC50: read-out: NO Synthesis IC50 ± SE. Here is the method:
(§1) Primary C57bl/6j murine macrophages were elicited with intraperitoneal injection of 3% peptone solution as per the standard procedure. Stimulation of inflammatory response was performed with E. coli O127:B8 LPS (100 ng/mL final concentration).
(§2) Nitric oxide was determined in culture supernatants as a nitrite anion with a standard Griess reagent after 22 h of incubation with test compounds at a wavelength of 550 nm with a microplate reader Infinite M200 PRO (Tecan GmbH, Grodig, Austria). Concentrations of IL-6 and TNF- α in cell supernatants were quantified with commercial ELISA kits according to the manufacturer’s instructions (Cloud-clone Corp., Katy, TX, USA).
(§3) Given our primary focus on the development of agents against cytokine-mediated tissue damage, we evaluated the target compounds as inhibitors of pro-inflammatory macrophage activation. Primary peritoneal macrophages were isolated from C57bl/6j mice, pooled, and stimulated with E. coli LPS as TLR4 agonist. Pro-inflammatory activation was assessed as nitric oxide (NO) synthesis and interleukin-6 (IL-6) secretion. The cytotoxicity of the compounds was monitored in parallel using the lactate dehydrogenase assay.
Background: Nitrite, measured by Griess reagent, commonly stands in for NO production.

For series [2] the test system is unchanged. Briefly: LPS-induced IL-6 secretion in primary peritoneal macrophages (ELISA). In kind it is cell-based, mice. To be noted: Mus musculus, Peritoneal macrophage; LPS 100 ng/mL; n = 3; read-out: IL-6 Secretion IC50 ± SE. The procedure: as §1, §2, §3
A general note: ELISA stands for enzyme-linked immunosorbent assay.

Another series deals with T1, rabbit platelet NHE-1 (Oryctolagus cuniculus, UniProt P23791).
T1 construct: endogenous in cells; host or cells: rabbit platelets
Briefly: NHE-1 inhibition assay (rabbit platelets, laser aggregometer). To be noted: rabbit platelets; for inhibition at 0.01 µM: 10 nM, m ± SD, n = 6. In kind it is cell-based. Here is the method: Inhibition of rabbit platelet NHE-1 was determined according to the method of [8, 9] in our modification, which was reported by us previously using the laser aggregometer BIOLA-220 LA (Russia).
Target compounds were evaluated as inhibitors of rabbit platelet NHE-1 (Table 1). It was shown that the substitution of H^5 with bromine decreased the activity of compounds 3b and 4b, indicating possible steric limitations of the binding site.

Series [3] can be described thus: Cytotoxicity, lactate dehydrogenase (LDH) assay. In kind it is cell-based, mice. To be noted: C57bl/6j, mouse, primary peritoneal macrophages stimulated with E. coli LPS; LPS-stimulated macrophages; n = 3; read-out: LDH CC50 ± SE. Here is the method: (§4) The activity of lactate dehydrogenase (LDH) in a cell culture medium was determined as reported by us previously with a microplate reader Infinite M200 PRO (Tecan, Austria).
as §3
(§5) In an attempt to identify safer alternatives to steroid anti-inflammatory agents, it is mandatory to evaluate lead compounds for immunodepressant activity. To do so, we determined the influence of compound 4a on macrophage phagocytosis after 72 h of incubation. Cell viability was monitored in parallel via the LDH assay.

The next series relates to C57bl/6j mice. Briefly: LPS-induced acute lung injury model. The format is in vivo. To be noted: dexamethasone 5 mg/kg i.p. Here is the method:
Prior to the experiment, C57BL/6J mice were randomized according to body weight and motor activity in an open field test. […] Animals of the control group were injected with an equal volume of the vehicle. Animals were anesthetized with isoflurane inhalation until the breathing rate decreased 1 h later. Mice were suspended by the front incisors on an inclined surgical table; the tongue was pulled out with narrow curved tweezers, and 1 mg/mL of E. coli O127:B8 LPS (Sigma-Aldrich, Israel) in 1 mL/kg sterile saline was injected into the back of the oropharynx to allow aspiration. Intact animals received an equal volume of sterile saline in a similar way.
The open field test was performed with the NPO “Open Science” (Russia) arena of 44 cm diameter and 32 cm wall height under 300 lux lighting as reported by us previously.
Mice were anesthetized with 500 mg/kg chloral hydrate (Sigma-Aldrich, Germany) intraperitoneally 24 h after LPS administration. Blood and bronchoalveolar lavage (BAL) sampling was performed as described in [13]. Leukocyte counts and the lung permeability index were determined as described by us previously.
Histological and immunohistological assessment of tissue sections was performed in a semi-quantitative way on paraffin sections after hematoxylin and eosin staining with a light microscope (Zeiss, Germany) with double-blinding. The degree of inflammation was determined as previously reported.
Lung injury was assessed 24 h later based on behavioral, biochemical, cytological, and morphological alterations.

In series [4] the test system is C57bl/6j peritoneal macrophages. Briefly: Macrophage phagocytosis assay. The format is cell-based, mice. Here is the method: The phagocytic activity of peritoneal macrophages was assessed after staining with Azur-Eosin with Romanovsky’s modifications as reported by us previously with a light microscopy using a Mikmed-6 (LOMO, Saint Petersburg, Russia) equipped with a digital camera.
as §5
(Figure 3). The mean number of phagocytosed particles per cell was […]. […] Macrophage spreading was registered and visually scored as a phenotypic marker of cell activation phagocytic capacity.

Series [5] shares this test system. Briefly: Cytotoxicity, lactate dehydrogenase (LDH) assay. The format is cell-based, mice. The note with it: 72 h of incubation, in parallel to phagocytosis. The procedure: as §4, §3, §5

T1 sequence (P23791 whole entry): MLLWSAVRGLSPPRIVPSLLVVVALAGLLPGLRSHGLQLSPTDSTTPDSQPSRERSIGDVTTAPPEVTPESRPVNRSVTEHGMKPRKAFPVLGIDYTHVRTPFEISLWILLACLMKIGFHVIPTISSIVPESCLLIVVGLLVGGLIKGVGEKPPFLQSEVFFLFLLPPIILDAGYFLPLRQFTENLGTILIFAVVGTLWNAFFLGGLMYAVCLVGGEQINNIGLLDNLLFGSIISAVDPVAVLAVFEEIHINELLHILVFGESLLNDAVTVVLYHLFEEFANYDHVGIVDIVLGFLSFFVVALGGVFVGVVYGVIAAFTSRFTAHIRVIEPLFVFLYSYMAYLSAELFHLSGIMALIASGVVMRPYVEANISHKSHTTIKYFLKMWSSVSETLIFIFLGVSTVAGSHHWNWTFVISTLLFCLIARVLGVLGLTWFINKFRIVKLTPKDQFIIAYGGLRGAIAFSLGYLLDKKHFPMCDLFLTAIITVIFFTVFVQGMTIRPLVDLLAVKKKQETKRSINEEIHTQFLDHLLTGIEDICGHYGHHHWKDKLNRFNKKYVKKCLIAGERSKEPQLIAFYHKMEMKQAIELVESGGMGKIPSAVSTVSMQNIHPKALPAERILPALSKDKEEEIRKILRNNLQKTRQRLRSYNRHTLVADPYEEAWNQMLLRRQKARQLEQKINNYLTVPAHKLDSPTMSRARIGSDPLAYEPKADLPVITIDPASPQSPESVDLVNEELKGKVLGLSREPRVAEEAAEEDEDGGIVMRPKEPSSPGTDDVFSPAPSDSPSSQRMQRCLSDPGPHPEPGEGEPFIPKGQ

Regarding `CN(C)CCCN1c2ccccc2CCc2ccccc21` [Imipramine, imipramine], in the series on male ICR mice (8 mg/kg), the “Immobilization Time” value is given as 112.5 ± 20.56 s.
On to `Nc1nnc(Cn2c(=O)c3cc(Br)ccc3n(Cc3nnc(N)[nH]3)c2=O)[nH]1` [Compound 4b, 1,3-Bis[(5-amino-4H-1,2,4-triazol-3-yl)methyl]-6-bromoquinazoline-2,4(1H,3H)-dione], for which the melting point was over 400 °C. In addition, in the series on rat intraocular pressure, the “Max IOP Reduction” value is 15.45 ± 9.39% and the “IOP-lowering activity reduction relative to 4a” value is 2 fold. In the series on rabbit platelets, the inhibition at 100 µM came to 47.4 ± 8.9%. Further, the IC50 in series [1] is 71 ± 4.89 µM. In addition, the IC50 in series [2] worked out at 64.8 ± 4.31 µM. Also, the inhibition at 0.01 µM on rabbit platelet NHE-1 was 16.2 ± 3.75%. In addition, the “Immobilization Time” value in the series on male ICR mice (4.9 mg/kg) was 168.2 ± 19.52 s. Besides, in series [3], the CC50 was over 100 µM.
`N=C(N)NC(=O)Cn1c(=O)c2ccccc2n(CC(=O)NC(=N)N)c1=O` [Compound 3a, 2,2’-(2,4-Dioxoquinazoline-1,3(2H,4H)-diyl)bis(N-carbamimidoylacetamide)] registered a melting point of 336 to 338 °C. In the series with rat intraocular pressure, the “Max IOP Reduction” value was 10.08 ± 5.8% and the “IOP-lowering activity reduction relative to 4a” value is recorded as 3 fold. Further, 100 µM produced 44.3 ± 14.3% inhibition in the series with rabbit platelets. The 50% inhibitory concentration (IC50) in series [1] was over 100 µM. In [2], the IC50 is over 100 µM. Also, on rabbit platelet NHE-1, at 0.01 µM the inhibition was 37.2 ± 5.97% and the “NHE-1 IC50” value is on record as “nanomolar range”. The CC50 in [3] is over 100 µM.
`C[C@@H]1C[C@H]2[C@@H]3CCC4=CC(=O)C=C[C@]4(C)[C@@]3(F)[C@@H](O)C[C@]2(C)[C@@]1(O)C(=O)CO` [Dexamethasone, dexamethasone, reference compound]: the “Exploratory activity, open field test” value with C57bl/6j mice was “comparably improved exploratory activity”. In the series on C57bl/6j mice (2 and 22 h after LPS), the “Motor activity, open field test” value was “reduced the LPS-induced motor and behavioral alterations”. In the series on C57bl/6j mice (24 h after LPS), the “CD68+ macrophage accumulation in lung tissue (immunostaining)” value was “significantly reduced this phenomenon”, the “Plasma IL-6” value was “significantly reduced plasma IL-6” and the “Segmented neutrophils in BAL” value is given as “significantly ameliorated the accumulation of segmented neutrophils”. The IC50 in series [1] amounted to 0.003 ± 0.001 µM. Also, the IC50 in series [2] was 0.003 ± 0.001 µM. Also, in series [4] (72 h of incubation), the “Mean number of phagocytosed particles per cell” value was found to be 59% and the Phagocytic activity is on record as 41 % from control. Further, in series [4] (yeast-treated macrophages, 72 h), the “Macrophage spreading (visually scored)” value is reported as “more evident”. Besides, the 50% cytotoxic concentration (CC50) in series [3] is over 100 µM. Further, the “Cell viability (LDH assay)” value in series [5] is given as “did not influence cell viability”.
Turning to `N=C(N)NC(=O)Cn1c(=O)c2cc(Br)ccc2n(CC(=O)NC(=N)N)c1=O` [Compound 3b, 2,2’-(6-Bromo-2,4-dioxoquinazoline-1,3(2H,4H)-diyl)bis(N-carbamimidoylacetamide)], the melting point is over 400 °C. The “Max IOP Reduction” value with rat intraocular pressure is recorded as 24.17 ± 5.05%. The compound further returned an inhibition at 100 µM in the series on rabbit platelets of 46.4 ± 9.2%. Besides, the IC50 in [1] was over 100 µM. The IC50 in series [2] was over 100 µM. At rabbit platelet NHE-1, this compound showed an inhibition at 0.01 µM of 10.2 ± 3.72%. Further, in series [3], the CC50 is over 100 µM.
For `CC(=O)Oc1ccccc1C(=O)O` [Acetylsalicylic acid, acetylsalicylic acid, reference compound], the inhibition at 100 µM with rabbit platelets worked out at 31.6 ± 4.6%.
Turning to `N=C(N)NC(=O)c1cnn(-c2cccc3ncccc23)c1C1CC1` [Zoniporide, zoniporide, reference compound], the EC50 in series [1] (printed as EC50 in the IC50 column, read-out: NO Synthesis EC50 ± SE) was determined as 15.6 µM. For the same compound, the IC50 in series [2] is over 100 µM. Further, the CC50 in [3] was found to be 407 ± 27.6 µM.
Take `CN(C)CCC=C1c2ccccc2CCc2ccccc21` [Amitriptyline, amitriptyline]: the “Immobilization Time” value with male ICR mice (10 mg/kg) came to 50.2 ± 12.71 s.
In the case of `N=C(N)NC(=O)c1nc(Cl)c(N)nc1N` [Amiloride, amiloride, reference compound], the “Max IOP Reduction” value with rat intraocular pressure is given as 18.39 ± 14.58%. Moreover, in the series with rabbit platelets, the inhibition at 100 µM was 67.6 ± 1%. The IC50 in series [1] came to 0.62 ± 0.05 µM. On rabbit platelet NHE-1, this compound displayed an inhibition at 0.01 µM of 5.39 ± 1.82% and an IC50 of 1230 nM. In addition, in the series with male ICR mice (2.6 mg/kg), the “Immobilization Time” value was 172.7 ± 8.54 s. Further, in series [3], the CC50 is over 100 µM.

Values taken from paper PMC9605072, “Guanidine Derivatives of Quinazoline-2,4(1H,3H)-Dione as NHE-1 Inhibitors and Anti-Inflammatory Agents” (Life, 2022).
